The text below walks through data of patent US20100113465A1, “7-AZASPIRO[3.5]NONANE-7-CARBOXAMIDE COMPOUNDS” (Pfizer Inc., priority 2008, published 2010).

For one test, the system named is Male Sprague-Dawley Rats. The test can be described thus: In vivo Complete Freund's Adjuvant (CFA) efficacy assay. Further details: species or system rat; key: (+) indicates the test compound was determined to be efficacious at 3 mpk, oral dosing; (−) indicates the test compound was determined to not be efficacious at 3 mpk, oral dosing. The following applies: 3 mpk, oral dosing; inhibition of allodynia (PWT) four hours postdose vs vehicle, p<0.05. The method, then:
For additional information on the CFA efficacy assay, see Jayamanne et al., Brit. J. Pharmacol. 2006, 147, 281-288. Experiments were performed on adult Male Sprague-Dawley Rats (200 g-250 g). Inflammation was induced in the left hindpaw of the rat by an intra-plantar injection of 150 uL Complete Freund's Adjuvant (CFA) (SIGMA F5881). The CFA injection immediately induces local inflammation, paw swelling, and pain that persists for at least two weeks post-injection. Baseline paw withdrawal threshold (PWT) was measured to determine the percent inhibition of allodynia using a set of Von Frey Hairs on day 4 post injection as illustrated by the Dixon Up and Down Method (W. J. Dixon, Ann. Rev. Pharmacol. Toxicol. 1980, 20:441-462). […] Test compound was administered at a concentration of 3 mg/kg (mpk) orally with the dosing vehicle 5% N,N′-Dimethylacetamide (SIGMA D137510) and 95% (40% 2-hydroxypropyl-beta-cyclodextrin in water) (SIGMA H107). Following Dose administration PWT threshold was evaluated again at four hours postdose. The Sprague-Dawley rats used in this assay were purchased from Harlan, 8520 Allison Pointe Blvd., Indianapolis, Ind., 46250, U.S.A. Sprague-Dawley rats are an outbred breed of albino rats first produced by the Sprague Dawley farms in Madison, Wis., U.S.A.
Percent Inhibition of Allodynia was determined by the formula: […]
ΔPWT measurements were averaged for each treatment group and statistical comparisons between groups were made using ANOVA and Dunnett's two-tailed test. […]

A further test addresses T1, human FAAH (Homo sapiens, UniProt O00519).
T1 construct: made in house; host or cells: E. coli
T1 sequence (O00519 1-579): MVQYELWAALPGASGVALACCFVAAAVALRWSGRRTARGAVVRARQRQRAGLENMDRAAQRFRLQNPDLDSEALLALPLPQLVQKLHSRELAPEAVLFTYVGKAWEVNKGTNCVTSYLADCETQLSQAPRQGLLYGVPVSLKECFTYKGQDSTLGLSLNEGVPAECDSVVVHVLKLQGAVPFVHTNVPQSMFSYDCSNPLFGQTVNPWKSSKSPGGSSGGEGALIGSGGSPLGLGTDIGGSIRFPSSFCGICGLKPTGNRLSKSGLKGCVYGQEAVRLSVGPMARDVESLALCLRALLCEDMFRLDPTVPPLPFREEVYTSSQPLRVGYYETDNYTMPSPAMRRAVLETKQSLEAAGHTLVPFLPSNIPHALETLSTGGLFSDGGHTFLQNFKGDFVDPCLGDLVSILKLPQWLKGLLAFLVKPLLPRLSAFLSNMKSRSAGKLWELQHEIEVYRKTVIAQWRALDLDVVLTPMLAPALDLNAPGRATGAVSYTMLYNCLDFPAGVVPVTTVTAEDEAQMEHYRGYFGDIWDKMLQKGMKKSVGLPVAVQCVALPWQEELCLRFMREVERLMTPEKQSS
The test can be described thus: FAAH assay, human FAAH enzyme inhibition (kinact/Ki). It counts as biochemical. The settings on record: oleamide substrate 50 μM, 30° C., read-out: hFAAH kinact/Ki. As to the method:
(§1) The FAAH assay was carried out in 384-well clear polystyrene plates (Evergreen Scientific) in a total volume of 50 μl per well in a manner similar to that described by Mileni et al., Proc. Nat. Acad. Sci. 2008, 105, 12820-12824. All percents are by volume. Serial dilutions of compound were initially prepared in 100% DMSO, and then diluted two-fold into HPLC-grade H2O to give 50% DMSO. To each well, was placed the reaction mixture (40 μl) containing 1-4 nM FAAH, 50 mM NaPi, pH 7.4, 3 mM α-ketoglutarate, 0.15 mM NADH, 7.5 U/ml glutamate dehydrogenase, 2 mM ADP, 1 mM EDTA, and 0.1% Triton X-100 (The concentration shown for each component is the final concentration in the assay). To this mixture, was added 5 μl of a compound of Examples 1 to 56 at various concentrations in 50% DMSO (or 5 μl 50% DMSO for controls). This was immediately followed by the addition of 5 μl oleamide (500 μM) dissolved in 75% EtOH/25% DMSO and the reaction mixture was mixed for 1.5 min. The final concentrations of DMSO and EtOH in the assay were each 7.5%. The reactions were incubated at 30° C. and the absorbance at 340 nm was collected over a period of 90 min with readings taken in 30-second intervals using SpectraMax Plus^384 Microplate Spectrophotometer (Molecular Devices, Sunnyvale, Calif.). The human FAAH and rat FAAH used in the assay was prepared as described in the patent application WO 2006/067613 using wild-type E. coli cells transformed in St. Louis, Mo., U.S.A. The purity of the enzyme was greater than 98% based on an analysis by SDS-polyacrylamide gel electrophoresis followed by Coomassie Blue staining.
(§2) Reaction progress curves were corrected for the non-enzymatic oxidation of NADH by subtraction of absorbancies at each time point obtained from control reactions containing no FAAH enzyme. The loss of enzyme activity as a function of time is well-described by the following mathematical equation (1) for a mono-exponential decay: […]
(§3) where At represents the absorbance at time t, A0 represents the absorbance at time zero, and C represents a constant. Observed rates of enzyme inactivation (kobs) were determined from the non-linear reaction progress curves by fitting the corrected absorbancies to an equation for a mono-exponential decay using the third-party Microsoft Excel plug-in, XLfit (IDBS Limited). Secondary plots of kobs vs. inhibitor concentration were prepared from kobs values obtained from progress curves. Second-order rates for enzyme inactivation, expressed as kinact/Ki (M^−1s^−1), were calculated from the slopes from linear regression analysis of the secondary plot of kobs vs. inhibitor concentration as defined in following equation (2), where [I]<<Ki:
(§4) The concentration of substrate in the assay was equal to the Km for oleamide of 50 μM. Therefore, reported kinact/Ki values are obtained by multiplying resulting slopes by a factor of two (i.e. slope=kinact/(Ki*2)).

A further test has as its target T2, rat FAAH (Rattus norvegicus, UniProt P97612).
T2 construct: made in house; host or cells: E. coli
T2 sequence (P97612 1-579): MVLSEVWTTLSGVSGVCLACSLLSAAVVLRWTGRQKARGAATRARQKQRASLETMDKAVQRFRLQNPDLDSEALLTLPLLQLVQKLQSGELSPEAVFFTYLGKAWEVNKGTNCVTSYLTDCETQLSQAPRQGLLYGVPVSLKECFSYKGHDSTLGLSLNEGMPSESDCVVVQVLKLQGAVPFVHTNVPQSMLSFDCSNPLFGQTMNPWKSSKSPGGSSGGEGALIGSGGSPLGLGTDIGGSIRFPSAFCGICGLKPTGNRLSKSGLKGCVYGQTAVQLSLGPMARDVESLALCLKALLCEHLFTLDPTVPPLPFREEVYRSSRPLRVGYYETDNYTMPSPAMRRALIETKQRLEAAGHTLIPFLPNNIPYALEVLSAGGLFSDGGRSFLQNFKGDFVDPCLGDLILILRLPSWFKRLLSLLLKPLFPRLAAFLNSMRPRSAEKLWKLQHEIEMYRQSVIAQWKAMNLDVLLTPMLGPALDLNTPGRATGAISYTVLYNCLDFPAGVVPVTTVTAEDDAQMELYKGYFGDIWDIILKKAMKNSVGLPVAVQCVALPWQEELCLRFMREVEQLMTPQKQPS
The test can be described thus: FAAH assay, rat FAAH enzyme inhibition (kinact/Ki). The test is classed as biochemical. The settings on record: oleamide substrate 50 μM, 30° C., read-out: rFAAH kinact/Ki. The method, then: as §1, §2, §3, §4

In the case of `Cc1noc(NC(=O)N2CCC3(CC2)CC(c2cccc(OC(F)(F)F)c2)C3)c1C` [Example 4, N-(3,4-dimethylisoxazol-5-yl)-2-[3-(trifluoromethoxy)phenyl]-7-azaspiro[3.5]nonane-7-carboxamide], the “CFA Efficacy” value with Male Sprague-Dawley Rats is on record as “(+)”. Also, the kinact/KI at human FAAH stood at 2830 M⁻¹ s⁻¹; on rat FAAH it was 3860 M⁻¹ s⁻¹.
For `Cc1cc(C2CC3(CCN(C(=O)Nc4onc(C)c4C)CC3)C2)ccc1F` [Example 12, N-(3,4-dimethylisoxazol-5-yl)-2-(4-fluoro-3-methylphenyl)-7-azaspiro[3.5]nonane-7-carboxamide], the “CFA Efficacy” value with Male Sprague-Dawley Rats is reported as “(+)”. Besides, the kinact/KI at human FAAH was 3950 M⁻¹ s⁻¹; at rat FAAH it was 2990 M⁻¹ s⁻¹.
For `Cc1noc(NC(=O)N2CCC3(CC2)CC(c2cccc(Cl)c2)C3)c1C` [Example 13, 2-(3-chlorophenyl)-N-(3,4-dimethylisoxazol-5-yl)-7-azaspiro[3.5]nonane-7-carboxamide] the same measures were “(+)”, 3940 M⁻¹ s⁻¹ and 3560 M⁻¹ s⁻¹.
For `Cc1noc(NC(=O)N2CCC3(CC2)CC(c2ccc(F)c(Cl)c2)C3)c1C` [Example 14, 2-(3-chloro-4-fluorophenyl)-N-(3,4-dimethylisoxazol-5-yl)-7-azaspiro[3.5]nonane-7-carboxamide] the same measures were “(+)”, 4190 M⁻¹ s⁻¹ and 5820 M⁻¹ s⁻¹.
Regarding `Cc1noc(NC(=O)N2CCC3(CC2)CC(c2ccc(Cl)c(F)c2)C3)c1C` [Example 39, 2-(4-chloro-3-fluorophenyl)-N-(3,4-dimethylisoxazol-5-yl)-7-azaspiro[3.5]nonane-7-carboxamide], the kinact/KI on human FAAH was 2670 M⁻¹ s⁻¹; at rat FAAH, 4120 M⁻¹ s⁻¹.
Turning to `Cc1noc(NC(=O)N2CCC3(CC2)CC(c2ccc(OCc4ccc(F)cc4)cc2)C3)c1C` [Example 40, N-(3,4-dimethylisoxazol-5-yl)-2-{4-[(4-fluorobenzyl)oxy]phenyl}-7-azaspiro[3.5]nonane-7-carboxamide], the results for the kinact/KI on human FAAH and on rat FAAH were 3050 M⁻¹ s⁻¹ and 1540 M⁻¹ s⁻¹, respectively.
With `Cc1noc(NC(=O)N2CCC3(CC2)CC(c2ccc(F)c(Cl)c2)C3C)c1C` (centres unmarked) [Example 41, 2-(3-chloro-4-fluorophenyl)-N-(3,4-dimethylisoxazol-5-yl)-1-methyl-7-azaspiro[3.5]nonane-7-carboxamide], the kinact/KI on human FAAH amounted to 354 M⁻¹ s⁻¹; at rat FAAH, 405 M⁻¹ s⁻¹.
For `Cc1noc(NC(=O)N2CCC3(CC(c4ccc(F)c(Cl)c4)C3)C(C)C2)c1C` (centres unmarked) [Example 42, 2-(3-chloro-4-fluorophenyl)-N-(3,4-dimethylisoxazol-5-yl)-5-methyl-7-azaspiro[3.5]nonane-7-carboxamide], the kinact/KI at human FAAH was found to be 991 M⁻¹ s⁻¹; at rat FAAH, 1360 M⁻¹ s⁻¹.
For `COC1(c2ccc(F)c(Cl)c2)CC2(CCN(C(=O)Nc3onc(C)c3C)CC2)C1` [Example 43, 2-(3-chloro-4-fluorophenyl)-N-(3,4-dimethylisoxazol-5-yl)-2-methoxy-7-azaspiro[3.5]nonane-7-carboxamide], the kinact/KI came to 494 M⁻¹ s⁻¹ on human FAAH and 247 M⁻¹ s⁻¹ on rat FAAH.
Consider `Cc1noc(NC(=O)N2CCC3(CC2)CC(O)(c2ccc(F)c(Cl)c2)C3)c1C` [Example 44, 2-(3-chloro-4-fluorophenyl)-N-(3,4-dimethylisoxazol-5-yl)-2-hydroxy-7-azaspiro[3.5]nonane-7-carboxamide], for which the kinact/KI at human FAAH worked out at 945 M⁻¹ s⁻¹; on rat FAAH it was 1340 M⁻¹ s⁻¹.
Turning to `O=C(Nc1nnc(-c2cccc(Cl)c2)o1)N1CCC2(CC1)CC(c1cccc(OC(F)(F)F)c1)C2` [Example 51, N-[5-(3-chlorophenyl)-1,3,4-oxadiazol-2-yl]-2-[3-(trifluoromethoxy)phenyl]-7-azaspiro[3.5]nonane-7-carboxamide], the kinact/KI amounted to 2520 M⁻¹ s⁻¹ on human FAAH and 5460 M⁻¹ s⁻¹ at rat FAAH.
For `CCn1nnnc1NC(=O)N1CCC2(CC1)CC(c1cccc(OC(F)(F)F)c1)C2` [Example 52, N-(1-ethyl-1H-tetrazol-5-yl)-2-[3-(trifluoromethoxy)phenyl]-7-azaspiro[3.5]nonane-7-carboxamide], the figures for the kinact/KI on human FAAH and at rat FAAH were 6940 M⁻¹ s⁻¹ and 3420 M⁻¹ s⁻¹, respectively.
For `Cn1nnnc1NC(=O)N1CCC2(CC1)CC(c1cccc3c1OC(F)(F)O3)C2` [Example 55, 2-(2,2-difluoro-1,3-benzodioxol-4-yl)-N-(1-methyl-1H-tetrazol-5-yl)-7-azaspiro[3.5]nonane-7-carboxamide] the same measures were 10200 M⁻¹ s⁻¹ and 2040 M⁻¹ s⁻¹.
With `Cn1nnnc1NC(=O)N1CCC2(CC1)CC(c1cccc(F)c1F)C2` [Example 56, 2-(2,3-difluorophenyl)-N-(1-methyl-1H-tetrazol-5-yl)-7-azaspiro[3.5]nonane-7-carboxamide], the results for the kinact/KI at human FAAH and at rat FAAH were 10300 M⁻¹ s⁻¹ and 1940 M⁻¹ s⁻¹, respectively.
